Test results: PMC11968843, “Sulphostin-inspired N-phosphonopiperidones as selective covalent DPP8 and DPP9 inhibitors” (Nature Communications, 2025)
Where “and” joins values, the source holds several entries; their conditions need not be identical. Identical values can stand only once.

Test system: HeLa wild-type cells
Assay: Cell viability assay (MTT), co-treatment with Mitomycin C
Assay type: cell-based
Experimental: HeLa wild-type (HeLa Flp-In T-REx WT, kind gift from Prof. Matthias Hentze) and HeLa DPP9^KO cells (prepared in-house) were cultured in DMEM (ThermoFisher, USA) supplemented with 10% FBS (PAN Biotech, Germany), 2 mM L-Glutamin (ThermoFisher, USA) and 1% Penicillin/Streptomycin (100 U mL^−1 Penicillin and 100 µg mL^−1 Streptomycin, ThermoFisher, USA). Cells were seeded in 96-well flat-bottom cell culture plates (Greiner, Germany) at a concentration of 5 × 10^3 cells per well (37 °C and 5% CO2). The indicated concentration of Mitomycin C (MMC, Merck) was added to the cells 24 h after seeding, together with 10 µM of the indicated inhibitor. The inhibitors were refreshed every 24 h. Control cells were treated with DMSO.
Cell viability was measured 72 hours after the MMC treatment. For this, the medium was removed and replaced with phenol-red free DMEM (ThermoFisher, USA) containing 0.5 mg mL^−1 MTT (Sigma Aldrich, USA). Cells were incubated for 30 min at 37 °C, 5% CO2. Subsequently, the medium was removed and replaced by DMSO. The plates were shaken on an orbital shaker for 20 min before measuring the MTT signal on a CARIOstar Plus microplate reader (BMT labtech, Germany). Each experiment was performed three times, each in triplicates.

SMILES: CCCCCCP(=O)(OCC)N1CCC[C@H](N)C1=O (stereo partly drawn) [Compound 5]
- cell viability normalized for each condition seperately to corresponsing [-MMC +inhibitor] control (+MMC co-treatment, individual replicate values (Supplementary Figure 11b)): 58.346% and 64.1242% and 71.7486% and 57.5023% and 82.3895% and 73.7368% and 74.46% and 78.7587% and 61.0935%
- 95% confidence interval of difference (Figure 5d S11a, + Ctrl. [+MMC] vs. compound [+MMC], Tukey's multiple comparisons test): -9,959 to 11,24
- 95% confidence interval of difference (Figure S11b, Ctrl. vs. compound, Uncorrected Fisher's LSD): -11,45 to 2,173
